Results: patent publication US20130266964A1, “METHOD OF DETECTING ENDOTHELIAL PROGENITOR CELLS” (PURDUE RESEARCH FOUNDATION, priority 2006, published 2013)

Legend:
[1] = target: T1, cell surface folate receptors on folate receptor positive M109 cells (Mus musculus, UniProt P35846); assay: fluorescence measurement of binding to cell surface folate receptors on M109 cells in culture; assay type: cell-based
T1 construct: cell surface folate receptors on folate receptor positive M109 cells in culture; endogenous in cells; host or cells: M109 cells
Experimental: AlexaFluor 488 C5-maleimide (Molecular Probes, Eugene, Oreg.) was dissolved in dimethyl sulfoxide (DMSO) (0.5 mg in 50 μl DMSO). A 1.5 molar equivalent (0.57 mg) of Folate-Cys was added to the solution and mixed for 4 hours at room temperature. Folate-Cys-AlexaFluor 488 (Folate-AlexaFluor) was purified by reverse-phase HPLC on a C18 column at a flow rate of 1 ml/min. The mobile phase, consisting of 10 mM NH4HCO3 buffer, pH 7.0 (eluent A) and acetonitrile (eluent B), was maintained at a 99:1 A:B ratio for the first minute and then changed to 1:99 A:B in a linear gradient over the next 29 minutes. Folate-Cys-AlexaFluor 488 eluted at 20 minutes. The product was confirmed by mass spectroscopy and the biologic activity was confirmed by fluorescence measurement of its binding to cell surface folate receptors on folate receptor positive M109 cells in culture.
Texas Red C2-maleimide (Molecular Probes, Eugene, Oreg.) was dissolved in dimethyl sulfoxide (DMSO) (1 mg in 200 μl DMSO). A 1.4 molar equivalent (1 mg) of Folate-Cys was added to the solution and mixed for 4 hours at room temperature. […] The product was confirmed by mass spectroscopy and the biologic activity was confirmed by fluorescence measurement of its binding to cell surface folate receptors on folate receptor positive M109 cells in culture.

[2] = system: folate receptor on CD133+ Flk1+ endothelial progenitor cells; assay: folate-FITC binding to endothelial progenitor cells quantified by flow cytometry; assay type: cell-based, BALB/c mice; settings: 100 nM folate-FITC
Experimental: Female 6- to 8-week-old BALB/c mice were injected in the peritoneal cavity with either Complete Freund's Adjuvant (CFA; 50-100 μL), Pseudomonas aeruginosa (1×10^7 CFU (colony forming units)), or Yersinia enterocolitica (1×10^6 CFU). Cells were isolated from the peritoneal cavity by lavage with 8 mL of sterile phosphate-buffered saline (PBS) 2-4 days later. The cells were pelleted by centrifugation (400×g, 10 minutes at room temperature) and resuspended in folate-deficient RPMI-1640 media (FD-RPMI; Gibco) containing 10% heat-inactivated fetal bovine serum (FBS), penicillin (100 IU/mL) and streptomycin (100 μg/mL). Peritoneal extracted cells were seeded at densities of 1×10^6 cells/microcentrifuge tube for antibody and folate conjugate studies.
All binding experiments were conducted on ice or in a 4° C. cold room unless indicated otherwise. All antibody labeling was optimized by titration. Optimal labeling was most often achieved with a 1/1000-1/10,000 dilution of the manufacture's stock antibody solution. After cells were labeled with antibodies, the samples were washed twice with PBS to remove non-specific binding. The samples were then incubated with a 100 nM concentration of folate-FITC for 45 minutes. […] All samples were analyzed by flow cytometry using a Becton Dickinson FACS Calibur (BD, Franklin Lakes, N.J.).

T1 sequence (P35846 25-232): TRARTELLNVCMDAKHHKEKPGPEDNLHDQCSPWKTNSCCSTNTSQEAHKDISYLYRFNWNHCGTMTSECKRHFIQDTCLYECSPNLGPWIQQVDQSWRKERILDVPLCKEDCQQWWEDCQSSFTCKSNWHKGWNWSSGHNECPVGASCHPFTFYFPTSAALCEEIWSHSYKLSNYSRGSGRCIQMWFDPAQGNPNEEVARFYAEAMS

`Nc1nc2ncc(CNc3ccc(C(=O)NC(CCC(=O)NC(CSC4CC(=O)N(CCNS(=O)(=O)c5ccc(C6=c7cc8c9c(c7Oc7c6cc6c%10c7CCCN%10CCC6)CCC[N+]=9CCC8)c(S(=O)(=O)O)c5)C4=O)C(=O)O)C(=O)O)cc3)nc2c(=O)[nH]1` (stereo not shown) [Folate-Cys-Texas Red] was tested, and the “biologic activity: binding to cell surface folate receptors” value [1] was “confirmed”.
For `N=c1ccc2c(-c3ccc(C(=O)NCCCCCN4C(=O)CC(SCC(NC(=O)CCC(NC(=O)c5ccc(NCc6cnc7nc(N)[nH]c(=O)c7n6)cc5)C(=O)O)C(=O)O)C4=O)cc3C(=O)O)c3ccc(N)c(S(=O)(=O)O)c3oc-2c1S(=O)(=O)O` (stereo not shown) [Folate-Cys-AlexaFluor 488], the “biologic activity: binding to cell surface folate receptors” value [1] was “confirmed”.
`Nc1nc2ncc(CNc3ccc(C(=O)NC(CCC(=O)NCCNC(=S)Nc4ccc(C(=O)O)c(-c5c6ccc(=O)cc-6oc6cc(O)ccc56)c4)C(=O)O)cc3)nc2c(=O)[nH]1` (stereo not shown) [folate-FITC] was tested, and the “binding to CD133+ Flk1+ endothelial progenitor cells” value ([2]; 45 minutes, on ice or 4° C., absence of unlabeled folic acid) was “bound” and the “binding to CD133+ Flk1+ endothelial progenitor cells with competition” value ([2]; pre-incubation with 100-fold excess of unlabeled folic acid (10 μM)) was “competed”.
